{"source": "patent US4390528A", "about": "“Tuftsinyl-tuftsin” (Research Corporation, priority 1981, dated 1983)", "key": {"[1]": {"system": "therapeutic action of tuftsin", "assay": "Inhibition of the therapeutic action of tuftsin", "conditions": "tripeptide formed by degradation of administered tuftsin", "experimental": "Thus, if large amounts of tuftsin are administered, for example, parenterally a rather complex series of reactions takes place. One is the desired therapeutically useful reaction, another is the formation of the inhibitory tripeptide and the third is the inhibitory reaction. The rate of the last two reactions is, unfortunately, so high that the administration of higher doses of the therapeutic agent is counterproductive. As more is administered, more of the inhibitory tripeptide is produced and less of the tuftsin is available to fulfill its therapeutic purpose."}, "[2]": {"system": "blood polymorphonuclear leucocytes", "conditions": "especially neutrophilic leucocytes, in mammals, known for some time; cited from earlier work"}, "[3]": {"system": "L1210 mouse leukemia cells", "assay": "Antineoplastic activity against L1210 mouse leukemia cells"}, "[4]": {"system": "blood polymorphonuclear leucocytes", "assay": "Stimulation of phagocytosis and pinocytosis", "type": "cell-based, mammals", "description": "It also stimulates pinocytosis to the same extent allowing the cells to obtain nourishment from the surrounding medium."}, "[5]": {"system": "L1210 cells", "assay": "Survival of DBA/2 mice injected intraperitoneally with L1210 cells", "type": "in vivo, mouse", "conditions": "25 DBA/2 mice, 20 μg intraperitoneally on days -7, -4 and 0; L1210 cells i.p. on day 0; control animals all dead by day 18", "experimental": "In one experiment, 25 DBA/2 mice were injected each with 20 μg of the octapeptide intraperitoneally on days -7, -4 and 0. On the last mentioned day, L1210 cells were also injected intraperitoneally in experimental animals and solvent buffer alone in 25 control mice. The animals were observed daily and deaths recorded. The control animals were all dead by day 18, whereas the treated mice survived 32 days."}, "[6]": {"system": "316 mouse melanoma cells", "assay": "Antineoplastic activity against 316 mouse melanoma cells"}, "[7]": {"system": "Cloudman S-91 mouse melanoma cells", "assay": "Antineoplastic activity against Cloudman S-91 mouse melanoma cells"}}, "note": "Where a SMILES comes first, the peptide text is derived from it. Where no end group is shown, it is not given here.", "data": [{"compound": "N=C(N)NCCC[C@H](NC(=O)[C@@H]1CCCN1C(=O)[C@@H](N)CCCCN)C(=O)O", "note": "[lysyl-prolyl-arginine] (H-Lys-Pro-Arg-OH)", "values": [{"measurement": "effect on the therapeutic action of tuftsin", "setting": "[1]", "value": "acts as an inhibitor"}]}, {"compound": "L-threonyl-L-lysyl-L-propyl-L-arginine [tuftsin]", "values": [{"measurement": "stimulation of phagocytosis and destruction of bacteria by leucocytes", "setting": "[2]", "value": "has the ability to stimulate phagocytosis"}]}, {"compound": "TKPRTKPR [Tuftsinyl-tuftsin, L-Threonyl-L-Lysyl-L-Prolyl-L-Arginyl-L-Threonyl-L-Lysyl-L-Prolyl-L-Arginine]", "values": [{"measurement": "antineoplastic activity", "setting": "[3]", "value": "manifests antineoplastic activity"}, {"measurement": "stimulation of phagocytosis and pinocytosis", "setting": "[4]", "value": "stimulator of phagocytosis and pinocytosis"}, {"measurement": "survival of treated mice", "setting": "[5]", "value": 32, "unit": "days"}, {"measurement": "antineoplastic activity", "setting": "[6]", "value": "manifests antineoplastic activity"}, {"measurement": "antineoplastic activity", "setting": "[7]", "value": "manifests antineoplastic activity"}]}]}
